# Source: US9174942B2, “IDO inhibitors” (NewLink Genetics Corporation, priority 2008, dated 2015)
# Where a name gives a salt, the structure may show the parent alone.
# Target: T1, purified human IDO protein (Homo sapiens, UniProt P14902, E119G/P110S)
# T1 construct: 6-Histidine tag (C); made in house; host or cells: E. coli M15(pREP4) transformed with pQE70-hIDO
# Assay: Enzymatic IDO assay (kynurenine formation, absorbance at 480 nm)
# Assay type: biochemical
# Settings: recombinant human IDO, 200 μM L-tryptophan, pH 6.5; reported in ranges
# Experimental: The inhibitors were initially diluted in DMSO at 100 mM and were diluted in potassium phosphate 50 mM, added to the reaction mixture at final concentrations raging from 1 mM to 5 nM and preincubated with the enzyme for 5 min at 25° C. The reaction was started by addition of L-tryptophan to 200 μM and incubated 15 min at 37° C. The reaction was stopped by addition of 0.5 vol of 30% trichloroacetic acid and incubated 30 min at 60° C. to hydrolyze N-formylkynurenine to kynurenine. The reaction was centrifuged at 3400 g for 5 min to remove precipitated protein and the supernatant was reacted with 2% (w/v) of p-dimethylaminobenzaldehyde in acetic acid. The reaction was incubated 10 min at 25° C. and read at 480 nm in a spectrophotometer. […] Nonlinear regressions and determination of the IC50 values were performed using the GraphPad Prism 4 software.
# T1 sequence (P14902 whole entry P110S/E119G): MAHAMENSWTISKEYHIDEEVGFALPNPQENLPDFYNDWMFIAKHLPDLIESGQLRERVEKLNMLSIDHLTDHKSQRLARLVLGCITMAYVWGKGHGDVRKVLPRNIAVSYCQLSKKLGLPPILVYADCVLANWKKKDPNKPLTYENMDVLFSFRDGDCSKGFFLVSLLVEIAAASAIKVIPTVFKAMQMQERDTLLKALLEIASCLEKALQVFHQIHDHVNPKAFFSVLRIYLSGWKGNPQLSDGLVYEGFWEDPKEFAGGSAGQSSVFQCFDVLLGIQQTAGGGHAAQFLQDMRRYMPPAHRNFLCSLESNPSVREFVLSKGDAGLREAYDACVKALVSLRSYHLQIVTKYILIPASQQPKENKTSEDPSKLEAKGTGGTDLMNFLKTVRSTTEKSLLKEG
row,Structure (SMILES),IC50
1,"Clc1ccccc1CCOc1ccccc1-c1c[nH]cn1 [Compound 15, 4-(2-(2-chlorophenethoxy)phenyl)-1H-imidazole]",< 20 µM
2,"N#Cc1cccc(-c2c[nH]cn2)c1 [Compound 94, 3-(1H-imidazol-5-yl)benzonitrile]",20 to 100 µM
3,"CC(C)(C)OC(=O)NCCn1cncc1-c1ccccc1 [Compound 114, tert-butyl 2-(5-phenyl-1H-imidazol-1-yl)ethylcarbamate]",100 to 500 µM
4,"CC(=O)Nc1ccc(CCOc2ccccc2-c2c[nH]cn2)cc1 [Compound 34, N-(4-(2-(2-(1H-imidazol-4-yl)phenoxy)ethyl)phenyl) acetamide]",< 20 µM
5,"c1ccc(-c2c[nH]cn2)c(OCC2CCCNC2)c1 (stereo not shown) [Compound 76, 3-((2-(1H-imidazol-4-yl)phenoxy)methyl)piperidine]",20 to 100 µM
6,"COC(=O)c1ccc(-c2c[nH]cn2)cc1 [Compound 115, methyl 4-(1H-imidazol-4-yl)benzoate]",100 to 500 µM
7,"Clc1ccc(CCOc2ccccc2-c2c[nH]cn2)cc1 [Compound 61, 4-(2-(4-chlorophenethoxy)phenyl)-1H-imidazole]",20 to 100 µM
8,"CC(=O)NCCCn1cncc1-c1ccccc1 [Compound 124, N-(3-(5-phenyl-1H-imidazol-1-yl)propyl)acetamide]",100 to 500 µM
9,"Oc1c(Br)cccc1-c1cnc[nH]1 [Compound 35, 2-bromo-6-(1H-imidazol-5-yl)phenol]",< 20 µM
10,"O=C(O)c1ccc(-c2c[nH]cn2)cc1 [Compound 119, 4-(1H-imidazol-4-yl)benzoic acid]",100 to 500 µM
11,"Cc1cccc(Cn2cncc2-c2ccccc2)c1 [Compound 90, 1-(3-methylbenzyl)-5-phenyl-1H-imidazole]",20 to 100 µM
12,"COc1ccccc1-c1cncn1CCC(C)(C)C [Compound 89, 1-(3,3-dimethylbutyl)-5-(2-methoxyphenyl)-1H-imidazole]",20 to 100 µM
13,CC(=O)NCCC(C)(C)CCOc1ccccc1-c1c[nH]cn1 [Compound 53],< 20 µM
14,"O=C(O)c1cccc(-c2c[nH]cn2)c1 [Compound 113, 3-(1H-imidazol-4-yl)benzoic acid]",100 to 500 µM
15,"CCc1ccc(O)c(-c2cnc[nH]2)c1 [Compound 111, 4-ethyl-2-(1H-imidazol-5-yl)phenol]",100 to 500 µM
16,"Clc1cccc(CCOc2ccccc2-c2c[nH]cn2)c1 [Compound 33, 4-(2-(3-chlorophenethoxy)phenyl)-1H-imidazole]",< 20 µM
17,"NS(=O)(=O)c1ccc(COc2ccccc2-c2c[nH]cn2)cc1 [Compound 46, 4-((2-(1H-imidazol-4-yl)phenoxy)methyl) benzenesulfonamide]",< 20 µM
18,"Clc1ccc(COc2ccccc2-c2cnc[nH]2)cc1 [Compound 14, 5-(2-(4-chlorobenzyloxy)phenyl)-1H-imidazole]",< 20 µM
19,"Clc1ccccc1Cn1cncc1-c1ccccc1 [Compound 52, 1-(2-chlorobenzyl)-5-phenyl-1H-imidazole]",< 20 µM

row,Structure (SMILES),IC50
1,"O=C(NCc1ccccc1-c1c[nH]cn1)c1ccccc1Cl [Compound 30, N-(2-(1H-imidazol-4-yl)benzyl)-2-chlorobenzamide]",< 20 µM
2,"CCOC(=O)c1ccccc1-c1c[nH]cn1 [Compound 80, ethyl 2-(1H-imidazol-4-yl)benzoate]",20 to 100 µM
3,"CS(=O)(=O)N1CCC(COc2ccccc2-c2c[nH]cn2)CC1 [Compound 84, 4-((2-(1H-imidazol-4-yl)phenoxy)methyl)-1-(methylsulfonyl)piperidine]",20 to 100 µM
4,"COc1cccc(O)c1-c1c[nH]cn1 [Compound 41, 2-(1H-imidazol-4-yl)-3-methoxyphenol]",< 20 µM
5,"O=[N+]([O-])c1ccc(Cn2cncc2-c2ccccc2)cc1 [Compound 85, 1-(4-nitrobenzyl)-5-phenyl-1H-imidazole]",20 to 100 µM
6,"N#Cc1ccc(COc2ccccc2-c2c[nH]cn2)cc1 [Compound 55, 4-((2-(1H-imidazol-4-yl)phenoxy)methy)benzonitrile]",20 to 100 µM
7,"COC(=O)CCC(C)(C)CCOc1ccccc1-c1c[nH]cn1 [Compound 79, methyl 6-(2-(1H-imidazol-4-yl)phenoxy)-4,4-dimethylhexanoate]",20 to 100 µM
8,"CC(C)(C)CCOc1cccc(O)c1-c1cnc[nH]1 [Compound 13, 3-(3,3-dimethylbutoxy)-2-(1H-imidazol-5-yl) phenol hydrochloride]",< 20 µM
9,"Oc1cccc(Cn2cncc2-c2ccccc2)c1 [Compound 51, 3-((5-phenyl-1H-imidazol-1-yl)methyl)phenol]",< 20 µM
10,"Clc1ccc(COc2c(Br)cccc2-c2c[nH]cn2)cc1 [Compound 60, 4-(3-bromo-2-(4-chlorobenzyloxy)phenyl)-1H-imidazole]",20 to 100 µM
11,"CNC(=O)CCCn1cncc1-c1ccccc1 [Compound 128, N-methyl-4-(5-phenyl-1H-imidazol-1-yl)butanamide]",100 to 500 µM
12,"CC(=O)N1CCCC(COc2ccccc2-c2c[nH]cn2)C1 (stereo not shown) [Compound 117, 1-(3-((2-(1H-imidazol-4-yl)phenoxy)methyl)piperidin-1-yl)ethanone]",100 to 500 µM
13,"CC(C)(C)CCn1cncc1-c1ccccc1 [Compound 32, 1-(3,3-dimethylbutyl)-5-phenyl-1H-imidazole]",< 20 µM
14,"Oc1cccc(OCc2ccc(Cl)cc2)c1-c1cnc[nH]1 [Compound 73, 3-(4-chlorobenzyloxy)-2-(1H-imidazol-5-yl)phenol]",20 to 100 µM
15,"CNC(=O)CCC(C)(C)CCOc1ccccc1-c1c[nH]cn1 [Compound 38, 6-(2-(1H-imidazol-4-yl)phenoxy)-N,4,4-trimethylhexanamide]",< 20 µM
16,"Cc1ccccc1COc1ccccc1-c1c[nH]cn1 [Compound 37, 4-(2-(2-methylbenzyloxy)phenyl)-1H-imidazole]",< 20 µM
17,"Cc1ccccc1Cn1cncc1-c1ccccc1 [Compound 77, 1-(2-methylbenzyl)-5-phenyl-1H-imidazole]",20 to 100 µM
18,"N#Cc1cccc(Cn2cncc2-c2ccccc2)c1 [Compound 69, 3-((5-phenyl-1H-imidazol-1-yl)methyl)benzonitrile]",20 to 100 µM
19,"c1ccc(CCn2cncc2-c2ccccc2)cc1 [Compound 81, 1-phenethyl-5-phenyl-1H-imidazole]",20 to 100 µM

# Next, values leading:
row,IC50,Structure (SMILES)
1,< 20 µM,"N#CC1CCC(=CCOc2ccccc2-c2c[nH]cn2)CC1 (stereo not shown) [Compound 160, 4-(2-(2-(1H-imidazol-4-yl)phenoxy)ethylidene)cyclohexanecarbonitrile]"
2,20 to 100 µM,"Clc1ccccc1OCCc1ccccc1-c1c[nH]cn1 [Compound 149, 4-(2-(2-(2-chlorophenoxy)ethyl)phenyl)-1H-imidazole]"
3,100 to 500 µM,"CC(C)(CCOc1ccccc1-c1cnc[nH]1)CCn1ccnc1 [Compound 163, 5-(2-(5-(1H-imidazol-1-yl)-3,3-dimethylpentyloxy)phenyl)-1H-imidazole]"
4,20 to 100 µM,"Clc1ccc(COc2cc(Cl)ccc2-c2c[nH]cn2)cc1 [Compound 147, 4-(4-chloro-2-(4-chlorobenzyloxy)phenyl)-1H-imidazole]"
5,20 to 100 µM,"c1ccc(-c2c[nH]cn2)c(OCC2CCNCC2)c1 [Compound 157, 4-((2-(1H-imidazol-4-yl)phenoxy)methyl)piperidine]"
6,< 20 µM,"Oc1ccc(C(F)(F)F)cc1-c1c[nH]cn1 [Compound 156, 2-(1H-imidazol-4-yl)-4-(trifluoromethyl)phenol]"
7,20 to 100 µM,"NC(=O)c1ccc(COc2ccccc2-c2c[nH]cn2)cc1 [Compound 146, 4-((2-(1H-imidazol-4-yl)phenoxy)methyl)benzamide]"
8,< 20 µM,"NC(=O)C1CCC(=CCOc2ccccc2-c2c[nH]cn2)CC1 (stereo not shown) [Compound 168, 4-(2-(2-(1H-imidazol-4-yl)phenoxy)ethylidene)cyclohexanecarboxamide]"
9,20 to 100 µM,"CC(C)(CCOc1ccccc1-c1c[nH]cn1)CCN1CCOCC1 [Compound 161, 4-(5-(2-(1H-imidazol-4-yl)phenoxy)-3,3-dimethylpentyl) morpholine]"
10,100 to 500 µM,"NC(=O)CCCn1cncc1-c1ccccc1 [Compound 129, 4-(5-phenyl-1H-imidazol-1-yl)butanamide]"
11,100 to 500 µM,"O=C(O)c1ccccc1-c1c[nH]cn1 [Compound 153, 2-(1H-imidazol-4-yl)benzoic acid]"
12,< 20 µM,"CC(C)(CCOc1ccccc1-c1c[nH]cn1)CCn1c(=O)c(F)cn([C@@H]2O[C@H](CO)[C@@H](O)[C@H]2O)c1=O [Compound 162, 3-(5-(2-(1H-imidazol-4-yl)phenoxy)-3,3-dimethylpentyl)-1-((2R,3R,4S,5R)-3,4-dihydroxy-5-(hydroxymethyl)tetrahydrofuran-2-yl)-5-fluoropyrimidine-2,4(1H,3H)-dione]"
13,20 to 100 µM,"CC(C)(C)OC(=O)N1CCC(CCOc2ccccc2-c2c[nH]cn2)CC1 [Compound 150, tert-butyl 4-(2-(2-(1H-imidazol-4-yl)phenoxy)ethyl) piperidine-1-carboxylate]"
14,< 20 µM,"CC(C)(CCNCc1ccccc1)CCOc1ccccc1-c1c[nH]cn1 [Compound 166, 5-(2-(1H-imidazol-4-yl)phenoxy)-N-benzyl-3,3-dimethylpentan-1-amine]"
15,20 to 100 µM,"Nc1ccccc1-c1cnc[nH]1 [Compound 155, 2-(1H-imidazol-4-yl)aniline]"
16,20 to 100 µM,"O=C1c2ccccc2CC1Oc1ccccc1-c1c[nH]cn1 (stereo not shown) [Compound 159, 2-(2-(1H-imidazol-4-yl)phenoxy)-2,3-dihydro-1H-inden-1-one]"
17,100 to 500 µM,"CC(=O)Nc1ccccc1CCOc1ccccc1-c1c[nH]cn1 [Compound 165, N-(2-(2-(2-(1H-imidazol-4-yl)phenoxy)ethyl)phenyl) acetamide]"
